Experimental data as given in a compilation of properties of binary mixtures (doi:10.1016/j.molliq.2017.12.015).

Assay: xn = mol fraction of the nth substance listed
Conditions: 100 kPa

CCCC[n+]1ccn(C)c1.O=S(=O)([N-]S(=O)(=O)C(F)(F)F)C(F)(F)F + CCOCCO
x1 = 1
Conditions | speed of sound [m/s]
298.15 K | 1227.8
303.15 K | 1216.7
308.15 K | 1205.8
313.15 K | 1194.9
318.15 K | 1184.2
323.15 K | 1173.6

CCOCCO + CCCC[n+]1ccn(C)c1.O=S(=O)([N-]S(=O)(=O)C(F)(F)F)C(F)(F)F
speed of sound [m/s]
Conditions | x2 = 0 | x2 = 0.1036 | x2 = 0.1905 | x2 = 0.2965 | x2 = 0.3882 | x2 = 0.489 | x2 = 0.5889 | x2 = 0.7018 | x2 = 0.7928 | x2 = 0.9071
298.15 K | 1302.8 | 1279.9 | – | – | 1240.5 | 1234.5 | 1231.4 | 1230.7 | – | 1228.3
303.15 K | 1285.1 | 1264.6 | 1246.6 | 1234.2 | – | 1223.9 | 1219.6 | 1219 | 1218.4 | 1217.3
308.15 K | 1267.3 | 1248.9 | 1232.1 | 1220.6 | 1214.5 | 1210.4 | 1207.6 | 1207.2 | 1206.9 | 1206.1
313.15 K | – | 1230.1 | 1217.7 | – | – | 1198 | 1197.7 | 1196.5 | 1196 | 1195
318.15 K | 1232 | 1217.4 | 1203.3 | – | – | 1187.7 | 1186.9 | 1185.9 | – | 1185
323.15 K | 1214.3 | 1201.5 | 1189 | – | 1176.2 | 1175.5 | 1175 | 1174.9 | 1174.3 | 1174
